Where two headings read alike, the source gives them in different places.
Tests used:
Toll-like receptor 8 = Toll-like receptor 8 (Homo sapiens (Human), UniProt Q9NR97); test: Toll-like receptor 8 in vitro receptor binding activity screen (HEK-blue hTLR8 cell, alkaline phosphatase/Quanti-Blue readout); format: cell-based; details: for EC50: HEK-blue hTLR8 cell, head-to-head test, read-out: TLR8 EC50
Method: (§1) Toll-Like Receptor 7 and Toll-Like Receptor 8 In Vitro Receptor Binding Activity Screen
(§2) HEK-blue hTLR7 cell and HEK-blue hTLR8 cell (available from InvivoGen)
(§3) 1. Preparation of 96-well compound plate:
(§4) The compounds were gradient diluted with DMSO in 3-fold using liquid work station POD starting at a concentration of 10 mmol/L and 10 points were diluted (2nd column to 11th column, and each point was duplicated). At 12th column, 1 μL of 5 mg/mL positive compound R848 was added as positive control; and at 1st column, 1 μL of DMSO was added as negative control. Each well contained 1 μL of DMSO.
(§5) 2. The cells in culture flask were collected and the cell density was diluted to 250,000 cells/mL.
(§6) 3. 200 μL (50,000 cells/well) of cell suspension was added into prepared compound plate and the final concentration of DMSO in each well was 0.5%.
(§7) 4. The culture plates containing cells and the compounds were incubated in CO2 incubator for 24 h at 37° C., 5% CO2.
(§8) 5. After 24 h incubation, 20 μL of supernatant was removed from each well to a 96-well transparent assay plate. To each well of the assay plate was added 180 μL of Quanti-Blue reagent and the plate was incubated in an incubator at 37° C., 5% CO2 for 1 h.
(§9) 6. After 1 h, the content of alkaline phosphatase in 20 μL of supernatant was determined using Microplate Reader OD650.
(§10) 7. EC50 of each compound was obtained with Prism software.

in vivo = details: rat; for half-life / AUC(0-inf) / AUC(0-t) / Cmax / Vd / clearance / Mean plasma drug concentration: male, SD
Method: 12 male SD rats were divided into 4 groups with 3 SD rats in each group. […] […] Each rat with oral administration was collected for whole blood samples which were prepared into plasma 15, 30 min and 1, 2, 4, 8, 24 h continuously after administration.

[1] = tested on: human peripheral blood mononuclear cells (PBMC); test: Peripheral blood mononuclear cell assay (cytokine induction, CBA); format: cell-based; details: for minimal effective concentration: Homo sapiens, read-out: INF-α MEC; for minimal effective concentration / TNF-α MEC: 24 h, human PBMC
Method: Peripheral Blood Mononuclear Cell Assay The purpose of this example is to determine the expression level of cytokines 24 h after stimulation to human peripheral blood mononuclear cells (PBMC) with the compounds. The cell supernatant was assayed without dilution and the levels of IFN-α and TNF-α were directly determined. The compound was firstly formulated into 20 mM DMSO stock solution and was gradient diluted with cell medium in 10-fold with the total number of 11 diluting points. The compounds in 9 diluting points (the highest concentration was 200 μmol/L) were added into 96-well plate with 50 μL in each well. Fresh human peripheral blood mononuclear cells were inoculated, with 150 μL in each well containing 450,000 cells. The cell culture plate was incubated in an incubator at 37° C., 5% CO2 for 24 h. After incubation, the culture plate was centrifuged at 1200 rpm for 5 min and the supernatant was collected and stored at −20° C. for determination. The determination of cytokine was performed using Cytometric Bead Array (CBA) of BD-Pharmingen on flow cytometer. Using the above determining method, the lowest drug concentration stimulating cytokine level which is over 3 times greater than the lowest detectable limit was designated as the MEC (Minimal Effective Concentration) value in the cytokine stimulating test.

Toll-like receptor 7 = Toll-like receptor 7 (Homo sapiens (Human), UniProt Q9NYK1); test: Toll-like receptor 7 in vitro receptor binding activity screen (HEK-blue hTLR7 cell, alkaline phosphatase/Quanti-Blue readout); format: cell-based; details: for EC50: HEK-blue hTLR7 cell, read-out: TLR7 EC50
Sequence of Toll-like receptor 7 (Q9NYK1 27-1049): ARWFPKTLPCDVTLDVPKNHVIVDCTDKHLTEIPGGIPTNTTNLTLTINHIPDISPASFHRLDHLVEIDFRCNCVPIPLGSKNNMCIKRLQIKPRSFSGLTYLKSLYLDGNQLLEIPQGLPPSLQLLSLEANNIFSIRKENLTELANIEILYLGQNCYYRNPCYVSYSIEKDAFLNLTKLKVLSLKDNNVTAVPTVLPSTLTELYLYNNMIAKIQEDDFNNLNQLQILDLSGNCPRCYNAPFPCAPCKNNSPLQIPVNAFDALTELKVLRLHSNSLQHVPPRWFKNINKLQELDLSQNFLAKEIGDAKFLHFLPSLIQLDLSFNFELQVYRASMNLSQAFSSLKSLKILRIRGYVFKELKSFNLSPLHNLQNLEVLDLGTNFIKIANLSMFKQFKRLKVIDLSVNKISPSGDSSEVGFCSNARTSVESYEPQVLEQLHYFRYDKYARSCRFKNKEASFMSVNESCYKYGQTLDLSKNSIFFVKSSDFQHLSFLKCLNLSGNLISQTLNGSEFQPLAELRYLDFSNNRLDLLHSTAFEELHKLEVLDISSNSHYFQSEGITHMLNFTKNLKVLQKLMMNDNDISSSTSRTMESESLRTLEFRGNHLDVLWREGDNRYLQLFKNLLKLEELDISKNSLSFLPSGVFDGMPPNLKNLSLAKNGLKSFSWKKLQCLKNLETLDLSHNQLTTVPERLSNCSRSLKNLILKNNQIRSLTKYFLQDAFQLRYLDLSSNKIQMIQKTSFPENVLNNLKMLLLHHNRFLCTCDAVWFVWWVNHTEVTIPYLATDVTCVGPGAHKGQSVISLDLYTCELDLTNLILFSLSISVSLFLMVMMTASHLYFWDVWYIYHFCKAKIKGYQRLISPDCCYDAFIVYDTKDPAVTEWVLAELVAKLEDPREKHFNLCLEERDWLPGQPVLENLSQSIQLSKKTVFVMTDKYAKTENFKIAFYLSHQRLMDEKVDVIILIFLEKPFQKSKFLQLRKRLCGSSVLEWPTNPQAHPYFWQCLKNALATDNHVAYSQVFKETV
Method: as §1, §2, §3, §4, §5, §6, §7, §8, §9, §10

duck hepatitis b virus = test: In vivo pharmacodynamics in duckling model infected with hepatitis B virus; set-up: species or system Beijing ducks; details: for rebound of HBV-DNA replication: 20 mg/kg one administration every third day, 3 days after ceasing administration
Method: In Vivo Pharmacodynamics in Duckling Model Infected with Hepatitis B Virus
Experimental design and procedures: Beijing ducks of 1 day old were intravenously administered duck hepatitis b virus positive duck serum. After 7 days, the animals were administered according to grouping, 6 ducks in each group. Control group: normal saline. […] The samples were administered intragastricly: 20 mg/kg groups were administered once every third day (one administration every 3 days) and 5 mg/kg groups were administered once every day for 16 days. […] For control group infected with duck hepatitis b virus, solvent was used instead of drug. 7 days after infection, the blood was collected before administration (TO),8 days after administration (T8),16 days after administration (T16) and 3 day after ceasing administration (P3), and the duck serum was separated and frozen for storage. […] Duck serum DNA (DHBV-DNA) determination: different duck sera in a batch were determined for duck blood DHBV-DNA level with real time fluorescent quantitative PCR. Statistics analysis: paired and grouped analysis was used to calculate the significance of inhibition of drug on duck serum DHBV-DNA for assessment.

hepatitis b virus = test: In vivo pharmacodynamics in HDI (hydrodynamic injection) mouse model infected with hepatitis b virus; details: 20 mg/kg intragastric, once a day, day 1 to day 7; FIGS. 1 and 2
Method: In Vivo Pharmacodynamics in HDI (Hydrodynamic Injection) Mouse Model Infected with Hepatitis b Virus
Experimental Design and Procedures:
Route: intragastric administration
Administration time: day 1 to day 7, 7 days in total
At day 1, 3, 5 and 7, plasma samples were collected 4 h after administration; and at day 7, liver sample was collected 4 h after administration.

[2] = 5 mg/kg intragastric once every day for 16 days, P3
[3] = 5 mg/kg intragastric once every day for 16 days, T8
[4] = 20 mg/kg intragastric once every third day, P3 (3 days after ceasing administration)
[5] = 20 mg/kg intragastric once every third day, T8 (8 days after administration)
[6] = 20 mg/kg intragastric once every third day, T16 (16 days after administration)

Sequence of Toll-like receptor 8 (Q9NR97 27-1041): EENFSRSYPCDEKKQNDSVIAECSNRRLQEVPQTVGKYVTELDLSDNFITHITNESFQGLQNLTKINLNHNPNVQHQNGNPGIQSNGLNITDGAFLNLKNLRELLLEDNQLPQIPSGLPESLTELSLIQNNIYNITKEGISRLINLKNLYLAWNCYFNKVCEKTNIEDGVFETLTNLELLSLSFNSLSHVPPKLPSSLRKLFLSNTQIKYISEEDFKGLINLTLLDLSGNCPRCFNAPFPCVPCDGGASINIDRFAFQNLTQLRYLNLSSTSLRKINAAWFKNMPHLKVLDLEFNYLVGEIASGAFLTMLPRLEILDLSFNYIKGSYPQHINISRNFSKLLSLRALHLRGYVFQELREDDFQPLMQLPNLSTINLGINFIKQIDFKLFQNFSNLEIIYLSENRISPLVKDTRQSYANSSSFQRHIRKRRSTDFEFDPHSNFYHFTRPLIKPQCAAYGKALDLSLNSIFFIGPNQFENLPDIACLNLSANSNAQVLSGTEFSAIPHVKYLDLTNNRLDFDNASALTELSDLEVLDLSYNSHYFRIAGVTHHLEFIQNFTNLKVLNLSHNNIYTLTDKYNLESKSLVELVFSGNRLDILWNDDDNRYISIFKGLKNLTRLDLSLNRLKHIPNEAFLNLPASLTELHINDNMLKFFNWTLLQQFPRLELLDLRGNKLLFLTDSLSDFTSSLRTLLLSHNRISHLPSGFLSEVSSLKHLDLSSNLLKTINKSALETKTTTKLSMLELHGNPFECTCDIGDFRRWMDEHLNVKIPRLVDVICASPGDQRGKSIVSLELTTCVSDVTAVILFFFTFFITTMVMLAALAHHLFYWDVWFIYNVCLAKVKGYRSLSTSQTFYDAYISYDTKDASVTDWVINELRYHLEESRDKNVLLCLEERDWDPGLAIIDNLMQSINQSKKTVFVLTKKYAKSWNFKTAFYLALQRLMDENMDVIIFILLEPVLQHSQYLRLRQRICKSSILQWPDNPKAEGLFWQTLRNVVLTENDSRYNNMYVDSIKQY

CCCCOc1nc(N)c2c(n1)N(Cc1cccc(CN3CCCC3)c1)CC(=O)N2 [GS-9620, reference compound]
EC50 (Toll-like receptor 8): 7870 nM | half-life (in vivo; 1 mg/kg, IV 1 mpk, read-out: T½ (converted)): 2.57 h | half-life (in vivo; 5 mg/kg, PO 5 mpk, read-out: T½ (converted)): 2.24 h | AUC(0-inf) (in vivo; iv, 1 mg/kg): 0.201 µM·h | AUC(0-t) (in vivo; iv, 1 mg/kg): 0.185 µM·h | Cmax (in vivo; iv, 1 mg/kg): 220 nM | Vd (in vivo; iv, 1 mg/kg): 32.8 L/kg | clearance (in vivo; iv, 1 mg/kg): 205 mL/min/kg | Mean plasma drug concentration (in vivo; iv, 1 mg/kg, 0.083 h): 170 nM | Mean plasma drug concentration (in vivo; iv, 1 mg/kg, 0.25 h): 102 nM | Mean plasma drug concentration (in vivo; iv, 1 mg/kg, 0.5 h): 65.4 nM | Mean plasma drug concentration (in vivo; iv, 1 mg/kg, 1 h): 48.1 nM | Mean plasma drug concentration (in vivo; iv, 1 mg/kg, 2 h): 21.6 nM | Mean plasma drug concentration (in vivo; iv, 1 mg/kg, 4 h): 13 nM | Mean plasma drug concentration (in vivo; iv, 1 mg/kg, 8 h): 4.17 nM | AUC(0-inf) (in vivo; po, 5 mg/kg): 0.359 µM·h | AUC(0-t) (in vivo; po, 5 mg/kg): 0.316 µM·h | Cmax (in vivo; po, 5 mg/kg): 164 nM | Mean plasma drug concentration (in vivo; po, 5 mg/kg, 0.25 h): 56.3 nM | Mean plasma drug concentration (in vivo; po, 5 mg/kg, 0.5 h): 33.2 nM | Mean plasma drug concentration (in vivo; po, 5 mg/kg, 1 h): 83.4 nM | Mean plasma drug concentration (in vivo; po, 5 mg/kg, 2 h): 136 nM | Mean plasma drug concentration (in vivo; po, 5 mg/kg, 4 h): 16.7 nM | Mean plasma drug concentration (in vivo; po, 5 mg/kg, 8 h): 9.49 nM | minimal effective concentration ([1]; PBMC, head-to-head test): 0.05 µM | TNF-α MEC ([1]; head-to-head test): 500 nM | EC50 (Toll-like receptor 7; head-to-head test): 517 nM | Duck serum HBV-DNA inhibition % (duck hepatitis b virus; [2]): 70.60 ± 47.66% | Duck serum HBV-DNA inhibition % (duck hepatitis b virus; [3]): 98.66 ± 2.75 % | Duck serum HBV-DNA inhibition % (duck hepatitis b virus; 5 mg/kg intragastric once every day for 16 days, T16): 78.02 ± 51.69% | Duck serum HBV-DNA inhibition % (duck hepatitis b virus; [4]): −132.97 ± 352.35% | Duck serum HBV-DNA inhibition % (duck hepatitis b virus; [5]): 99.13 ± 1.83 % | Duck serum HBV-DNA inhibition % (duck hepatitis b virus; [6]): 98.26 ± 1.50 % | rebound of HBV-DNA replication (duck hepatitis b virus): rebound of HBV-DNA replication

CCCCOc1nc(N)c2[nH]cc(Cc3ccc(CN4CCCC4)cc3)c2n1 [Example 21, 2-butoxy-7-(4-(pyrrolidine-1-ylmethyl)benzyl)-5H-pyrrolo[3,2-d]pyrimidine-4-amine]
EC50 (Toll-like receptor 8): 11600 nM | in vitro receptor binding activity to Toll-like receptor 8 compared with GS-9620 (Toll-like receptor 8; versus control GS-9620): lower | efficacy by HBV copy numbers in plasma and liver compared with GS-9620 (hepatitis b virus): better efficacy | AUC(0-inf) (in vivo; iv, 1 mg/kg): 0.676 µM·h | AUC(0-t) (in vivo; iv, 1 mg/kg): 0.641 µM·h | Cmax (in vivo; iv, 1 mg/kg): 478 nM | Vd (in vivo; iv, 1 mg/kg): 29 L/kg | clearance (in vivo; iv, 1 mg/kg): 65.8 mL/min/kg | half-life (in vivo; iv, 1 mg/kg): 5.76 h | Mean plasma drug concentration (in vivo; iv, 1 mg/kg, 0.083 h): 318 nM | Mean plasma drug concentration (in vivo; iv, 1 mg/kg, 0.25 h): 141 nM | Mean plasma drug concentration (in vivo; iv, 1 mg/kg, 0.5 h): 109 nM | Mean plasma drug concentration (in vivo; iv, 1 mg/kg, 1 h): 74.3 nM | Mean plasma drug concentration (in vivo; iv, 1 mg/kg, 2 h): 48.9 nM | Mean plasma drug concentration (in vivo; iv, 1 mg/kg, 4 h): 37.7 nM | Mean plasma drug concentration (in vivo; iv, 1 mg/kg, 8 h): 31.6 nM | Mean plasma drug concentration (in vivo; iv, 1 mg/kg, 24 h): 3.94 nM | AUC(0-inf) (in vivo; po, 5 mg/kg): 0.749 µM·h | AUC(0-t) (in vivo; po, 5 mg/kg): 0.699 µM·h | Cmax (in vivo; po, 5 mg/kg): 186 nM | half-life (in vivo; po, 5 mg/kg): 6.24 h | Mean plasma drug concentration (in vivo; po, 5 mg/kg, 0.25 h): 69.4 nM | Mean plasma drug concentration (in vivo; po, 5 mg/kg, 0.5 h): 41.6 nM | Mean plasma drug concentration (in vivo; po, 5 mg/kg, 1 h): 36.4 nM | Mean plasma drug concentration (in vivo; po, 5 mg/kg, 2 h): 186 nM | Mean plasma drug concentration (in vivo; po, 5 mg/kg, 4 h): 51.2 nM | Mean plasma drug concentration (in vivo; po, 5 mg/kg, 8 h): 23.9 nM | Mean plasma drug concentration (in vivo; po, 5 mg/kg, 24 h): 5.25 nM | exposure compared with GS-9620 (in vivo): higher exposure | half-life compared with GS-9620 (in vivo): longer half-life | minimal effective concentration ([1]; PBMC, Minimal Effective Concentration): 1e-05 to 0.001 µM | minimal effective concentration ([1]; PBMC, head-to-head test): 0.005 µM | TNF-α inducing activity compared with GS-9620 ([1]; PBMC, versus control GS-9620): comparable | in vitro IFN-α inducing activity compared with GS-9620 ([1]; PBMC, versus control GS-9620): higher | TNF-α MEC ([1]; head-to-head test): 500 nM | EC50 (Toll-like receptor 7; 24 h): 100 to 1000 nM | EC50 (Toll-like receptor 7; head-to-head test): 160 nM | in vitro receptor binding activity to Toll-like receptor 7 compared with GS-9620 (Toll-like receptor 7; versus control GS-9620): higher | Duck serum HBV-DNA inhibition % (duck hepatitis b virus; [2]): 95.55 ± 3.56 % | Duck serum HBV-DNA inhibition % (duck hepatitis b virus; [3]): 99.96 ± 0.06 % | inhibition rate compared with GS-9620 (duck hepatitis b virus; 5 mg/kg, one administration everyday): significant advantage | Duck serum HBV-DNA inhibition % (duck hepatitis b virus; [4]): 92.81 ± 13.79 % | Duck serum HBV-DNA inhibition % (duck hepatitis b virus; [5]): 100.0 ± 0 % | Duck serum HBV-DNA inhibition % (duck hepatitis b virus; [6]): 98.80 ± 1.84 % | rebound of HBV-DNA replication (duck hepatitis b virus): no rebound | inhibition rate compared with GS-9620 (duck hepatitis b virus; 20 mg/kg, one administration every third day): roughly comparable
